Experimental data reported in patent US20150038404A1, “MACROCYCLIC COMPOUNDS” (University of Florida Research Foundation, priority 2012, published 2015).
pIC50: −log10 of the molar value.

Tests used:
Assay type in all cases: cell-based
BEAS-2B cells [1] = assay: Morphology of elastase-treated bronchial epithelial cells; conditions: within 2 h of treatment with human neutrophil elastase
Procedure: FIG. 4. Human neutrophil elastase induces changes in morphology of BEAS-2B cells within 2 h of treatment.
An apparent change in cellular morphology of bronchial epithelial cells was observed within 2 h of elastase treatment, with cells becoming rounded, in contrast to the elongated appearance of control cells (FIG. 4). […] These observations indicated intercellular adhesion molecules as a possible direct target of exogenous elastase in bronchial epithelial cells. […] Several proteases have been implicated in the posttranslational modification of membrane-bound ICAM-1 (mICAM-1) to soluble ICAM-1 (sICAM-1), depending on the cell type. In endothelial, fibroblast and astrocyte cultures, sICAM-1 generation is mediated by a matrix metalloprotease or ADAM 17^24.

sICAM-1 = assay: Measurement of sICAM-1 levels in culture supernatants (AlphaLisa); conditions: elastase-challenged BEAS-2B cells, 6 h, P<0.05
Procedure: A significant difference in expression of fully glycosylated mICAM-1 (˜100 kDa) was observed between the control and elastase treatment, with maximum expression in the former. […] This inverse relationship is consistent with measurements of sICAM-1 levels in the culture supernatants and provided internal validation of the direct effects of elastase with the proteolytic cleavage of ICAM-1.
BEAS-2B cells (60,000) were seeded in collagen-coated 24-well plates. After overnight incubation, the media was replaced with supplement-free media and the cells were further incubated for 24 h. At the end of the incubation period, cells were replenished with new supplement-free media prior to treatment. Stock human neutrophil elastase solution was prepared in sodium acetate and test aliquots were further diluted in supplement-free medium. […] Control cells were treated with DMSO (1%) and sodium acetate in supplement-free medium (4%). The cells were incubated for 6 h. Culture supernatants were collected and sICAM-1 levels were determined using ICAM-1 AlphaLisa® Kit (Perkin Elmer) according to the manufacturer's instruction.

BEAS-2B cells [2] = assay: Cell viability (MTT) assay of bronchial epithelial cells challenged with elastase; conditions: within 24 h of treatment, read-out: IC50 of anti-proliferative activity on bronchial epithelial cells
Procedure: FIG. 3. […] HNE induced cell death after 24 h and this was alleviated by cotreatment with compound 1.
Bronchial epithelial cells (BEAS-2B, ATCC) were grown in bronchial epithelial basal media (BEBM, Lonza) supplemented with bronchial epithelial growth factors (Lonza) under a humidified environment with 5% CO2 at 37° C. BEAS-2B (5,000) cells were seeded in collagen-coated 96-well plates and treated with varying concentrations of elastase after 24 h of seeding. […] The cells were incubated for an additional 24 h before the addition of the MTT reagent. Cell viability was measured according to the manufacturer's instructions (Promega). IC50 calculations were done by GraphPad Prism 5.03 based on duplicate experiments.

Compound: CC(C)(C)C(=O)Oc1ccc(S(=O)(=O)Nc2ccccc2C(=O)NCC(=O)O)cc1 [sivelestat]
- Effect on elastase-induced change in morphology of BEAS-2B cells (BEAS-2B cells [1]): reverted
- Concentration giving significant decrease of sICAM-1 levels (sICAM-1): 320 nM

Compound: Elastase: human neutrophil elastase used to challenge bronchial epithelial cells
- pIC50 (BEAS-2B cells [2]): 7.09
